Laboratory results reported in patent US20250145585A1, “HETEROCYCLIC INHIBITORS OF IGF-1R FOR TREATMENT OF DISEASE” (HORIZON THERAPEUTICS IRELAND DAC, priority 2023, published 2025).

Molecular target: T1, IGF-1R (Homo sapiens, UniProt P08069)
T1 construct: expressed in transfected cells
Assay: Example B-2: IGF-1R Assay (PathHunter cell lines, EC80 agonist challenge, chemiluminescent detection)
Type: cell-based
Details: PathHunter cells, compound 60 minutes at 37° C., EC80 agonist 3 hours; read-out: IC50, Biological Activity against IGF-1R (Table B2)
Experimental: PathHunter cell lines were expanded from freezer stocks according to standard procedures. Cells were seeded in a total volume of 20 μL into white walled, 384-well microplates and incubated for the appropriate time prior to testing.
Cells are pre-incubated with compound followed by EC80 agonist challenge as follows: • R. 1. Intermediate dilution of sample stocks was performed to generate 5× sample in assay buffer. • 2. 5 μL of 5× sample was added to cells and incubated at 37° C. for 60 minutes. Vehicle concentration was 1%. • 3. 5 IL of 6× EC80 agonist in assay buffer was added to the cells and incubated at room temperature for 3 hours.
Assay signal was generated through a single addition of 12.5 or 15 μL (50% v/v) of PathHunter Detection reagent cocktail for agonist and antagonist assays respectively, followed by a one hour incubation at room temperature. Microplates were read following signal generation with a PerkinElmer Envision™ instrument for chemilumine-scent signal detection.
Compound activity was analyzed using CBIS data analysis suite (ChemInnovation, CA). Percentage inhibition was calculated using the following formula: % Inhibition=100%×(1−(mean RLU of test sample−mean RLU of vehicle control)/(mean RLU of EC80 control−mean RLU of vehicle control)). The activity for representative examples of the invention is shown in the following table, wherein A: IC50≤500 nM; B: 500 nM<IC50≤2 μM; C: 2 μM<IC50≤10 μM; D: IC50>10 μM.

T1 sequence (P08069 31-1367): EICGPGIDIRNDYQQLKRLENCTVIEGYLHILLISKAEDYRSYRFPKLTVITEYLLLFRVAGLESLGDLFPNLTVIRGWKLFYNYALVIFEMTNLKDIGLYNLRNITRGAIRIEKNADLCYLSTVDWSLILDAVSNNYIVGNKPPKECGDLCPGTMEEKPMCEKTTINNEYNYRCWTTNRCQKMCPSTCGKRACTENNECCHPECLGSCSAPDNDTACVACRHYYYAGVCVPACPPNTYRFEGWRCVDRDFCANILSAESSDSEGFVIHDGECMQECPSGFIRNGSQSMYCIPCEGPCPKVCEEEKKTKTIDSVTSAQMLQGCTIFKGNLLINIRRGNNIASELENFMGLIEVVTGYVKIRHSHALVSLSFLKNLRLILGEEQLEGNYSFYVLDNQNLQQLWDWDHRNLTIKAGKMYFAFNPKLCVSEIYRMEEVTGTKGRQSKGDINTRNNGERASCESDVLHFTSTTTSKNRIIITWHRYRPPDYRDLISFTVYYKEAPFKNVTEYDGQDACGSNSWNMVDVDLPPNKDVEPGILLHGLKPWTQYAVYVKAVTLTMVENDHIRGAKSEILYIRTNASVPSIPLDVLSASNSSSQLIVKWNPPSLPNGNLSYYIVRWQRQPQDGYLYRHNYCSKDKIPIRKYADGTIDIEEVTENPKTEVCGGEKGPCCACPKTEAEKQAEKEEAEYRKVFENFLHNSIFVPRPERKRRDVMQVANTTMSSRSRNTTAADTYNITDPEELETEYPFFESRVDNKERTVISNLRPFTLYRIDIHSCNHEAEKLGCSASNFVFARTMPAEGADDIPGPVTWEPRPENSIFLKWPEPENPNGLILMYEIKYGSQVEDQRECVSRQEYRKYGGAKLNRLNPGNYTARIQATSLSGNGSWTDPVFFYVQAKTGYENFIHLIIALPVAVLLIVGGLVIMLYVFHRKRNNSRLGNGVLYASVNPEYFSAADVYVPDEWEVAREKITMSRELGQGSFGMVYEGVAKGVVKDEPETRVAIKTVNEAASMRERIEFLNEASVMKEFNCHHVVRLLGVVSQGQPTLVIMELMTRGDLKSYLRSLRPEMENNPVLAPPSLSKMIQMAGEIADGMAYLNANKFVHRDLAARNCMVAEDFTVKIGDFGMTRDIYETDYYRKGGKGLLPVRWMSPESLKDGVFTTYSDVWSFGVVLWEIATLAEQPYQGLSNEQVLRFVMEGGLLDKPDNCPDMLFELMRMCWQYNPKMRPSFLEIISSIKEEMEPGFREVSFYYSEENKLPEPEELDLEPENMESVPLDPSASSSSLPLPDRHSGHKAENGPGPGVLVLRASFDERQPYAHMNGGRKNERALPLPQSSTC

Row | IC50 | SMILES
1 | ≤ 500 nM | CC1(C)C(=O)N(c2ccc(C3(C(F)(F)F)CC3)cc2)C(=O)N1Cc1ccnc2c1OC[C@@H](CC#N)N2 [Compound 56, (R)-2-(8-((5,5-dimethyl-2,4-dioxo-3-(4-(1-(trifluoromethyl)cyclopropyl)phenyl)imidazolidin-1-yl)methyl)-3,4-dihydro-2H-pyrido[3,2-b][1,4]oxazin-3-yl) acetonitrile]
2 | ≤ 500 nM | CC1(C)COc2cc(N3C(=O)N(Cc4ccnc(NC5CCOCC5)c4)C(C)(C)C3=O)ccc21 [Compound 199, 3-(3,3-dimethyl-2,3-dihydrobenzofuran-6-yl)-5,5-dimethyl-1-((2-((tetrahydro-2H-pyran-4-yl)amino)pyridin-4-yl)methyl)imidazolidine-2,4-dione]
3 | > 10000 nM | CC1(C)C(=O)N(c2ccc(S(C)(=O)=O)cc2)C(=O)N1Cc1ccnc2c1CC(=O)N2 [Compound 62, 5,5-dimethyl-3-(4-(methylsulfonyl)phenyl)-1-((2-oxo-2,3-dihydro-1H-pyrrolo[2,3-b]pyridin-4-yl)methyl)imidazolidine-2,4-dione]
4 | 500 to 2000 nM | CN1C[C@H](Nc2cc(CN3C(=O)N(c4ccc(S(=O)(=O)C(F)(F)F)cc4)C(=O)C3(C)C)ccn2)CC1=O [Compound 324, (R)-5,5-dimethyl-1-((2-((1-methyl-5-oxopyrrolidin-3-yl)amino)pyridin-4-yl)methyl)-3-(4-((trifluoromethyl)sulfonyl)phenyl) imidazolidine-2,4-dione]
5 | ≤ 500 nM | CC1(C)C(=O)N(c2ccc(C3(C(F)(F)F)CC3)cc2)C(=O)N1Cc1ccnc(NCC2(C#N)CC2)c1 [Compound 160, 1-(((4-((5,5-dimethyl-2,4-dioxo-3-(4-(1-(trifluoromethyl)cyclopropyl)phenyl)imidazolidin-1-yl)methyl)pyridin-2-yl)amino)methyl)cyclopropane-1-carbonitrile]
6 | ≤ 500 nM | CC1(C)C(=O)N(c2ccc(S(=O)(=O)C(F)(F)F)cc2)C(=O)N1Cc1ccnc(N[C@H]2CCOC2)c1 [Compound 320, (S)-5,5-dimethyl-1-((2-((tetrahydrofuran-3-yl)amino)pyridin-4-yl)methyl)-3-(4-((trifluoromethyl)sulfonyl)phenyl) imidazolidine-2,4-dione]
7 | ≤ 500 nM | COC[C@@H](C)Nc1cc(CN2C(=O)N(c3ccc4c(c3)N(C)CC4(C)C)C(=O)C2(C)C)ccn1 [Compound 202, (R)-1-((2-((1-methoxypropan-2-yl)amino)pyridin-4-yl)methyl)-5,5-dimethyl-3-(1,3,3-trimethylindolin-6-yl)imidazolidine-2,4-dione]
8 | ≤ 500 nM | CC1(C)CN(S(C)(=O)=O)c2cc(N3C(=O)N(Cc4ccnc(N[C@H]5CCOC5)c4)C(C)(C)C3=O)ccc21 [Compound 201, (S)-3-(3,3-dimethyl-1-(methylsulfonyl)indolin-6-yl)-5,5-dimethyl-1-((2-((tetrahydrofuran-3-yl)amino)pyridin-4-yl)methyl)imidazolidine-2,4-dione]
9 | ≤ 500 nM | CC1(C)C(=O)N(c2ccc3c(c2)N(S(C)(=O)=O)CC32CCC2)C(=O)N1Cc1ccnc(N[C@H]2[C@@H]3COC[C@@H]32)c1 [Compound 216, 1-((2-(((1R,5S,6r)-3-oxabicyclo[3.1.0]hexan-6-yl)amino)pyridin-4-yl)methyl)-5,5-dimethyl-3-(1′-(methylsulfonyl)spiro[cyclobutane-1,3′-indolin]-6′-yl)imidazolidine-2,4-dione]
10 | ≤ 500 nM | CC1(C)C(=O)N(c2ccc(C(C)(C)C(F)(F)F)cc2)C(=O)N1Cc1ccnc2c1C(F)(F)C(=O)N2 [Compound 49, 1-((3,3-difluoro-2-oxo-2,3-dihydro-1H-pyrrolo[2,3-b]pyridin-4-yl)methyl)-5,5-dimethyl-3-(4-(1,1,1-trifluoro-2-methylpropan-2-yl)phenyl)imidazolidine-2,4-dione]
11 | 2000 to 10000 nM | Cn1nc(C(C)(C)C)c(Br)c1N1C(=O)N(Cc2ccnc3c2CC(=O)N3)C(C)(C)C1=O [Compound 47, 3-(4-bromo-3-(tert-butyl)-1-methyl-1H-pyrazol-5-yl)-5,5-dimethyl-1-((2-oxo-2,3-dihydro-1H-pyrrolo[2,3-b]pyridin-4-yl)methyl)imidazolidine-2,4-dione]
12 | ≤ 500 nM | Cn1cc(CNc2cc(CN3C(=O)N(c4ccc(S(=O)(=O)C(F)(F)F)cc4)C(=O)C3(C)C)ccn2)cn1 [Compound 344, 5,5-dimethyl-1-((2-(((1-methyl-1H-pyrazol-4-yl)methyl)amino)pyridin-4-yl)methyl)-3-(4-((trifluoromethyl)sulfonyl)phenyl) imidazolidine-2,4-dione]
13 | ≤ 500 nM | CC(C)c1ccc(N2C(=O)N(Cc3ccnc(N[C@H]4[C@@H]5COC[C@@H]54)c3)C(C)(C)C2=O)cc1OCCN(C)C [Compound 280, 1-((2-(((1R,5S,6r)-3-oxabicyclo[3.1,0]hexan-6-yl)amino)pyridin-4-yl)methyl)-3-(3-(2-(dimethylamino)ethoxy)-4-isopropylphenyl)-5,5-dimethylimidazolidine-2,4-dione]
14 | 2000 to 10000 nM | C[C@H](Nc1cc(CN2C(=O)N(c3ccc(S(=O)(=O)C(F)(F)F)cc3)C(=O)C2(C)C)ccn1)[C@H]1CCCO1 [Compound 340, 5,5-dimethyl-1-((2-(((S)-1-((R)-tetrahydrofuran-2-yl)ethyl)amino)pyridin-4-yl)methyl)-3-(4-((trifluoromethyl)sulfonyl)phenyl) imidazolidine-2,4-dione]
15 | ≤ 500 nM | CC1(C)CN(S(C)(=O)=O)c2cc(N3C(=O)N(Cc4ccnc(N[C@H]5[C@@H]6COC[C@@H]65)c4)C(C)(C)C3=O)ccc21 [Compound 207, 1-((2-(((1R,5S,6r)-3-oxabicyclo[3.1.0]hexan-6-yl)amino)pyridin-4-yl)methyl)-3-(3,3-dimethyl-1-(methylsulfonyl)indolin-6-yl)-5,5-dimethylimidazolidine-2,4-dione]
16 | ≤ 500 nM | CC1(C)CN(S(=O)(=O)C2CC2)c2cc(N3C(=O)N(Cc4ccnc(NC5CCOCC5)c4)C(C)(C)C3=O)ccc21 [Compound 248, 3-(1-(cyclopropylsulfonyl)-3,3-dimethylindolin-6-yl)-5,5-dimethyl-1-((2-((tetrahydro-2H-pyran-4-yl)amino)pyridin-4-yl)methyl)imidazolidine-2,4-dione]
17 | ≤ 500 nM | CCOC(=O)N1C(=O)Cc2c(CN3C(=O)N(c4ccc(C5(C(F)(F)F)CC5)cc4)C(=O)C3(C)C)ccnc21 [Compound 78, ethyl 4-((5,5-dimethyl-2,4-dioxo-3-(4-(1-(trifluoromethyl)cyclopropyl)phenyl)imidazolidin-1-yl)methyl)-2-oxo-2,3-dihydro-1H-pyrrolo[2,3-b]pyridine-1-carboxylate]
18 | ≤ 500 nM | CC1(C)C(=O)N(c2ccc(S(=O)(=O)C(F)(F)F)cc2)C(=O)N1Cc1ccnc(NC2CCc3cn[nH]c3C2)c1 (stereo not shown) [Compound 325, 5,5-dimethyl-1-((2-((4,5,6,7-tetrahydro-1H-indazol-6-yl)amino)pyridin-4-yl)methyl)-3-(4-((trifluoromethyl)sulfonyl)phenyl) imidazolidine-2,4-dione]
19 | ≤ 500 nM | C[C@@H](CC#N)Nc1cc(CN2C(=O)N(c3ccc4c(c3)N(S(C)(=O)=O)CC4(C)C)C(=O)C2(C)C)ccn1 [Compound 215, (S)-3-((4-((3-(3,3-dimethyl-1-(methylsulfonyl)indolin-6-yl)-5,5-dimethyl-2,4-dioxoimidazolidin-1-yl)methyl)pyridin-2-yl)amino)butanenitrile]
